Experimental findings from patent US9540379B2 (priority 2011, dated 2017) are described below.

In the experiment the target is PDE10A (Homo sapiens (Human), UniProt Q9Y233). The conditions noted are these: read-out: Inhibition of PDE10A, IC50.
Sequence of PDE10A (Q9Y233 other isoform, or with tags, fused parts or gaps): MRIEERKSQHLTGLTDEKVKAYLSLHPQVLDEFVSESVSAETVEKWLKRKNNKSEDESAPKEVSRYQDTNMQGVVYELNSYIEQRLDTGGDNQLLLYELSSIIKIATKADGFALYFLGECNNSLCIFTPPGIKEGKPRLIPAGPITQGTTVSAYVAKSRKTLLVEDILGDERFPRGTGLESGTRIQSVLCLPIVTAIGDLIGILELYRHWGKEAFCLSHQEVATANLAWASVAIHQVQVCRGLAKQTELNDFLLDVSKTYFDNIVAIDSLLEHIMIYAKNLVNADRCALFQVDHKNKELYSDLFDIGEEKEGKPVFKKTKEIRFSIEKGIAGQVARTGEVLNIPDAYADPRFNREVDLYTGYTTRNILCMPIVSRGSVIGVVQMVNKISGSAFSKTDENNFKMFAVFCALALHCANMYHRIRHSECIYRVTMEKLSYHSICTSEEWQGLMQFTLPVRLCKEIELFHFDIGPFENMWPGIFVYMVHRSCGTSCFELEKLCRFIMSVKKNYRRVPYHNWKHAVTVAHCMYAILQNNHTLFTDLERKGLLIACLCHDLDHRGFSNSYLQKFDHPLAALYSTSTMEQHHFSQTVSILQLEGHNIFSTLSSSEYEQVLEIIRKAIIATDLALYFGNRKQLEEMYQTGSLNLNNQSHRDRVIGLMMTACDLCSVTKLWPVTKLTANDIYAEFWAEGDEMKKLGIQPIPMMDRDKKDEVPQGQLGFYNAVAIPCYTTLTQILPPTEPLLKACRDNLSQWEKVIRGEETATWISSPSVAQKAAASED

Description: Inhibition of Recombinant PDE10A (Expressed in Baculovirus/SF21 Cells)
PDE activity was determined in a one step procedure in microtiter plates. The reaction mixture of 100 μl contained 50 mM Tris-HCl/5 mM MgCl2 buffer (pH=7.4, Sigma, Deisenhofen, Germany; Merck, Darmstadt, Germany) 0.1 μM [3H]-cAMP (PerkinElmer, Shelton, USA) and the enzyme. Non-specific enzyme activity was determined without the enzyme.
The reaction was initiated by addition of the substrate solution and was carried out at 37° C. for 30 minutes. Enzymatic activity then was stopped by addition of 25 μl Ysi-SPA-beads (PerkinElmer, Shelton, USA). One h later the mixture was measured in a liquid scintillation counter for microtiter plates (Microbeta Trilux). The Biomek 2000 (Beckman) was used routinely for pipetting of the incubation mixture. […] For determination of IC50 values the Hill-plot, 2-parameter-model, was used.

Take `CCCCOc1ccc(Cl)c(-c2nnc3c(C)nc4cc(Cl)ccc4n23)c1` [Example 23, 1-(5-Butoxy-2-chloro-phenyl)-7-chloro-4-methyl-[1,2,4]triazolo[4,3-a]quinoxaline]: the IC50 is over 1 µM.
With `CCCCCCOc1ccc(F)c(-c2nnc3c(C)nc4cc(Cl)ccc4n23)c1` [Example 24, 7-Chloro-1-(2-fluoro-5-hexyloxy-phenyl)-4-methyl-[1,2,4]triazolo[4,3-a]quinoxaline] the figure was over 1 µM; with `CCCCOc1ccc(C)c(-c2nnc3c(C)nc4cc(Cl)ccc4n23)c1` [Example 25, 1-(5-Butoxy-2-methyl-phenyl)-7-chloro-4-methyl-[1,2,4]triazolo[4,3-a]quinoxaline], over 1 µM.
The same measure for `CCCCCCOc1ccc(C)c(-c2nnc3c(C)nc4cc(Cl)ccc4n23)c1` [Example 26, 7-Chloro-1-(5-hexyloxy-2-methyl-phenyl)-4-methyl-[1,2,4]triazolo[4,3-a]quinoxaline]: over 1 µM; for `Cc1nc2ccccc2n2c(-c3ccccc3F)nnc12` [Example 30, 1-(2-Fluoro-phenyl)-4-methyl-[1,2,4]triazolo[4,3-a]quinoxaline]: 0.346 µM; for `Cc1nc2ccccc2n2c(-c3cc(Cl)ccc3Cl)nnc12` [Example 34, 1-(2,5-Dichloro-phenyl)-4-methyl-[1,2,4]triazolo[4,3-a]quinoxaline]: 0.33 µM.
The same measure for `Cc1nc2ccccc2n2c(-c3cccc(Cl)c3Cl)nnc12` [Example 35, 1-(2,3-Dichloro-phenyl)-4-methyl-[1,2,4]triazolo[4,3-a]quinoxaline]: 0.36 µM.
On to `Cc1nc2ccccc2n2c(-c3cc(OCC4CCC4)ccc3Cl)nnc12` [Example 47, 1-(2-Chloro-5-cyclobutylmethoxy-phenyl)-4-methyl-[1,2,4]triazolo[4,3-a]quinoxaline], for which the half-maximal inhibitory concentration (IC50) is over 1 µM.
Take `Cc1nc2ccccc2n2c(-c3cc(OCC4CC4)ccc3Cl)nnc12` [Example 48, 1-(2-Chloro-5-cyclopropylmethoxy-phenyl)-4-methyl-[1,2,4]triazolo[4,3-a]quinoxaline]: the IC50 was over 1 µM.
With `Cc1nc2ccccc2n2c(-c3cc(OCCc4ccccc4)ccc3Cl)nnc12` [Example 49, 1-(2-Chloro-5-phenethyloxy-phenyl)-4-methyl-[1,2,4]triazolo[4,3-a]quinoxaline] the figure was over 1 µM; with `Cc1nc2ccccc2n2c(-c3cc(O)ccc3Cl)nnc12` [Example 50, 4-Chloro-3-(4-methyl-[1,2,4]triazolo[4,3-a]quinoxalin-1-yl)-phenol], 0.062 µM; with `Cc1nc2ccc(F)cc2n2c(-c3ccccc3F)nnc12` [Example 52, 8-Fluoro-1-(2-fluoro-phenyl)-4-methyl-[1,2,4]triazolo[4,3-a]quinoxaline], 0.553 µM.
The same measure for `Cc1ncccc1-c1nnc2c(C)nc3ccc(F)cc3n12` [Example 53, 8-Fluoro-4-methyl-1-(2-methyl-pyridin-3-yl)-[1,2,4]triazolo[4,3-a]quinoxaline]: 1 µM.
On to `COc1ccc(Cl)c(-c2nnc3c(C)nc4ccc(F)cc4n23)c1` [Example 56, 1-(2-Chloro-5-methoxy-phenyl)-8-fluoro-4-methyl-[1,2,4]triazolo[4,3-a]quinoxaline], for which the IC50 was determined as 0.279 µM.
The same measure for `Cc1nc2ccc(F)cc2n2c(-c3cc(C(F)(F)F)ccc3Cl)nnc12` [Example 57, 1-(2-Chloro-5-trifluoromethyl-phenyl)-8-fluoro-4-methyl-[1,2,4]triazolo[4,3-a]quinoxaline]: over 1 µM; for `CCCCOc1ccc(F)c(-c2nnc3c(C)nc4ccc(F)cc4n23)c1` [Example 58, 1-(5-Butoxy-2-fluoro-phenyl)-8-fluoro-4-methyl-[1,2,4]triazolo[4,3-a]quinoxaline]: over 1 µM.
The same measure for `CCCCOc1ccc(Cl)c(-c2nnc3c(C)nc4ccc(F)cc4n23)c1` [Example 59, 1-(5-Butoxy-2-chloro-phenyl)-8-fluoro-4-methyl-[1,2,4]triazolo[4,3-a]quinoxaline]: over 1 µM.
The same measure for `CCCCCCOc1ccc(F)c(-c2nnc3c(C)nc4ccc(F)cc4n23)c1` [Example 60, 8-Fluoro-1-(2-fluoro-5-hexyloxy-phenyl)-4-methyl-[1,2,4]triazolo[4,3-a]quinoxaline]: over 1 µM.
For `COc1ccccc1-c1nnc2c(C)nc3ccc(C(F)(F)F)cc3n12` [Example 63, 1-(2-Methoxy-phenyl)-4-methyl-8-trifluoromethyl-[1,2,4]triazolo[4,3-a]quinoxaline], the IC50 came to 0.265 µM.
With `Cc1nc2ccc(C(F)(F)F)cc2n2c(-c3cccc(Cl)c3Cl)nnc12` [Example 64, 1-(2,3-Dichloro-phenyl)-4-methyl-8-trifluoromethyl-[1,2,4]triazolo[4,3-a]quinoxaline] the figure was 0.337 µM; with `Cc1nc2ccc(C(F)(F)F)cc2n2c(-c3cc(C(F)(F)F)ccc3Cl)nnc12` [Example 65, 1-(2-Chloro-5-trifluoromethyl-phenyl)-4-methyl-8-trifluoromethyl-[1,2,4]triazolo[4,3-a]quinoxaline], over 1 µM; with `Cc1nc2ccc(C(F)(F)F)cc2n2c(-c3ccccc3F)nnc12` [Example 66, 1-(2-Fluorophenyl)-4-methyl-8-trifluoromethyl-[1,2,4]triazolo[4,3-a]quinoxaline], 0.471 µM.
The same measure for `CCCCOc1ccc(F)c(-c2nnc3c(C)nc4ccc(C(F)(F)F)cc4n23)c1` [Example 67, 1-(5-Butoxy-2-fluoro-phenyl)-4-methyl-8-trifluoromethyl-[1,2,4]triazolo[4,3-a]quinoxaline]: over 1 µM; for `CCCCCCOc1ccc(F)c(-c2nnc3c(C)nc4ccc(C(F)(F)F)cc4n23)c1` [Example 68, 1-(2-Fluoro-5-hexyloxy-phenyl)-4-methyl-8-trifluoromethyl-[1,2,4]triazolo[4,3-a]quinoxaline]: over 1 µM; for `COc1ccc2c(c1)nc(C)c1nnc(-c3ccccc3F)n12` [Example 73, 1-(2-Fluoro-phenyl)-7-methoxy-4-methyl-[1,2,4]triazolo[4,3-a]quinoxaline]: 0.223 µM.
The same measure for `COc1ccc2c(c1)nc(C)c1nnc(-c3ccccc3Cl)n12` [Example 74, 1-(2-Chloro-phenyl)-7-methoxy-4-methyl-[1,2,4]triazolo[4,3-a]quinoxaline]: 0.068 µM; for `Cc1nc2cc(O)ccc2n2c(-c3ccccc3Cl)nnc12` [Example 76, 1-(2-Chloro-phenyl)-4-methyl-[1,2,4]triazolo[4,3-a]quinoxalin-7-ol]: 0.274 µM.
With `COc1ccc(CCOc2ccc3c(c2)nc(C)c2nnc(-c4ccccc4Cl)n23)cc1OC` [Example 78, 1-(2-Chloro-phenyl)-7-[2-(3,4-dimethoxy-phenyl)-ethoxy]-4-methyl-[1,2,4]triazolo[4,3-a]quinoxaline], the IC50 turned out to be 0.048 µM.
The same measure for `Cc1nc2cc(OCc3ccc4ccccc4n3)ccc2n2c(-c3ccccc3Cl)nnc12` [Example 79, 1-(2-Chloro-phenyl)-4-methyl-7-(quinolin-2-ylmethoxy)-[1,2,4]triazolo[4,3-a]quinoxaline]: 0.001 µM; for `Cc1nc2ccc(OCc3ccc4ccccc4n3)cc2n2c(-c3ccccc3Cl)nnc12` [Example 80, 1-(2-Chloro-phenyl)-4-methyl-8-(quinolin-2-ylmethoxy)-[1,2,4]triazolo[4,3-a]quinoxaline]: 0.01 µM; for `CC(=O)OCCCCOc1ccc(Cl)c(-c2nnc3c(C)nc4ccccc4n23)c1` [Example 89, Acetic acid 4-[4-chloro-3-(4-methyl-[1,2,4]triazolo[4,3-a]quinoxalin-1-yl)-phenoxy]-butyl ester]: over 1 µM.
With `Cc1nc2ccccc2n2c(-c3cc(OCCN4CCOCC4)ccc3Cl)nnc12` [Example 91, 1-[2-Chloro-5-(2-morpholin-4-yl-ethoxy)-phenyl]-4-methyl-[1,2,4]triazolo[4,3-a]quinoxaline] the figure was over 1 µM; with `Cc1nc2ccccc2n2c(-c3cc(OCC(=O)c4ccccn4)ccc3Cl)nnc12` [Example 93, 2-[4-Chloro-3-(4-methyl-[1,2,4]triazolo[4,3-a]quinoxalin-1-yl)-phenoxy]-1-pyridin-2-yl-ethanone], over 1 µM.
With `Cc1nc2ccccc2n2c(-c3cc(OCCN4CCCCC4)ccc3Cl)nnc12` [Example 95, 1-[2-Chloro-5-(2-piperidin-1-yl-ethoxy)-phenyl]-4-methyl-[1,2,4]triazolo[4,3-a]quinoxaline] the figure was over 1 µM; with `Cc1nc2ccccc2n2c(-c3cc(OCCN4CCCC4)ccc3Cl)nnc12` [Example 96, 1-[2-Chloro-5-(2-pyrrolidin-1-yl-ethoxy)-phenyl]-4-methyl-[1,2,4]triazolo[4,3-a]quinoxaline], over 1 µM; with `Cc1nc2ccccc2n2c(-c3cc(OCCC4CCOCC4)ccc3Cl)nnc12` [Example 97, 1-{2-Chloro-5-[2-(tetrahydro-pyran-4-yl)-ethoxy]-phenyl}-4-methyl-[1,2,4]triazolo[4,3-a]quinoxaline], over 1 µM.
In the case of `Cc1nc2ccccc2n2c(-c3cc(OCC(C)O)ccc3Cl)nnc12` (centres unmarked) [Example 100, 1-[4-Chloro-3-(4-methyl-[1,2,4]triazolo[4,3-a]quinoxalin-1-yl)-phenoxy]-propan-2-ol], the 50% inhibitory concentration (IC50) worked out at 0.784 µM.
With `Cc1nc2ccc(Cl)cc2n2c(-c3cc(OCCCO)ccc3Cl)nnc12` [Example 101, 3-[4-Chloro-3-(8-chloro-4-methyl-[1,2,4]triazolo[4,3-a]quinoxalin-1-yl)-phenoxy]-propan-1-ol] the figure was 0.319 µM; with `Cc1nc2ccc(Cl)cc2n2c(-c3cc(OCC(C)O)ccc3Cl)nnc12` (centres unmarked) [Example 102, 1-[4-Chloro-3-(8-chloro-4-methyl-[1,2,4]triazolo[4,3-a]quinoxalin-1-yl)-phenoxy]-propan-2-ol], 0.611 µM.
The same measure for `Cc1nc2ccc(Cl)cc2n2c(-c3cc(O)ccc3Cl)nnc12` [Example 107, 4-Chloro-3-(8-chloro-4-methyl-[1,2,4]triazolo[4,3-a]quinoxalin-1-yl)-phenol]: 0.013 µM.
Turning to `COCCOc1ccc(F)c(-c2nnc3cnc4ccccc4n23)c1` [Example 109, 1-[2-Fluoro-5-(2-methoxy-ethoxy)-phenyl]-[1,2,4]triazolo[4,3-a]quinoxaline], the concentration for half-maximal inhibition (IC50) is over 1 µM.

Broadly, the IC50 is the midpoint of a concentration-inhibition curve.
